Data taken from article PMC4420518 (Protein Science : A Publication of the Protein Society, 2015).

Columns and labels:
[1] = system: TpsB4-P1 (TpsB4 POTRA1 domain); test: 1H-15N HSQC NMR titration of 15N-labelled TpsB4-P1 with peptides; type: binding, P. aeruginosa
[2] = target: TpsB4 POTRA1 domain (TpsB4-P1; residues 42-121) (P. aeruginosa); test: NMR titration

| Substance | binding to 15N-labelled TpsB4-P1 (CSPs in 1H-15N HSQC) ([1]; 200 μM TpsB4-P1, synthetic peptides, free N- and C-termini) | exchange regime of interaction with TpsB4 POTRA1 ([1]; NMR timescale) | Kd [2] |
| --- | --- | --- | --- |
| QVFLVNPNGVLFGRGAQ [CupB5^80–96] | interacts with TpsB4‐P1 with a virtually identical pattern of CSPs | fast exchange | – |
| TpsA4^79-95 peptide | – | – | 1.49 mM |
